The target of this experiment is T1, thermopsin, thermostable acid protease purified from Sulfolobus acidocaldarius culture medium (Sulfolobus acidocaldarius, UniProt P17118).
T1 construct: There are 41 amino acids in front of the NH2 -terminal position of thermopsin including the initiation methionine; made in house; host or cells: native enzyme purified from Sulfolobus acidocaldarius culture medium (not recombinant)
T1 sequence (P17118 42-340): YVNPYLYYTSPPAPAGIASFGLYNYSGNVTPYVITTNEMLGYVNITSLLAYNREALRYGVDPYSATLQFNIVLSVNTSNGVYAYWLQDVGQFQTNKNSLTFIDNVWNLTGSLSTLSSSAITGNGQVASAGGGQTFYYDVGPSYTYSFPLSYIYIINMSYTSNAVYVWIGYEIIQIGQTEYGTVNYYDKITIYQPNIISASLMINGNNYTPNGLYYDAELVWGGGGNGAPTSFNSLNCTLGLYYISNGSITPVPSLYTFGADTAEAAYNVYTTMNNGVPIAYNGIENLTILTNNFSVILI
In words: Effects of proteinase inhibitors on thermopsin (preincubation with inhibitor, then 14C-hemoglobin proteolytic assay). The experiment is classed as biochemical. Particulars: for remaining activity at 20 µM: 0.02 mM inhibitor in preincubation (pH 6.0, 37° C., 5 min); for remaining activity at 10 µM: 0.01 mM inhibitor in preincubation (pH 6.0, 37° C., 5 min). As for the experimental part:
Proteolytic activity is routinely assayed using ^14 C-methylated bovine hemoglobin as substrate, as prepared according to the method of Lin, et al., J. Biol. Chem. 264,4482-4489 (1989). The assay mixture, containing 0.51% hemoglobin substrate and thermopsin in 0.1 ml of 0.1M sodium formate, pH 3.2, is placed in an Eppendorf tube. After incubation at 80° C. for a period of time between 5 to 30 min, depending on the level of activity of thermopsin used, an aliquot of 0.1 ml of 10% trichloracetic acid is added to stop the reaction and precipitate the protein. After removal of the precipitate by centrifugation, the radioactivity of an aliquot of the clear supernate is determined in a scintillation counter.
The effect of various protease inhibitors on the activity of thermopsin was tested.
Thermopsin is preincubated with the indicated level of inhibitor in 0.1 M
phosphate buffer, pH 6.0, containing 1 mM EDTA and DTT at 37° C.
for 5 min. Sodium formate (pH 3.2) and ^14 CHemoglobin is then added
to a concentration as described above. The enzyme assay is then carried
out at 80° C. for 15 min. Enzyme activity is expressed as percent

[1] abbreviates: concentration not given, see Table II.
Where [2] appears, read: assay pH 3.2, 80° C., 15 min, percent of control, read-out: Enzyme Activity (%).

Several values for one entry are separate records, joined by “and”; a condition that tells them apart may be missing. Identical values can stand only once. Entries after “also recorded” stand apart in the source; their conditions may differ. Like-named read-outs stand apart in the source and are kept apart here. Numbered stars: 1 amine (or outer) side, 2 acyl side, 3 side chain; on linkers, the order of the positions; unused ones are H or OH. Square brackets hold non-standard residues; d marks the D form. Peptide text beside a SMILES is read from it. * marks the point of attachment. Sta = CC(C)C[C@H](N)[C@@H](O)CC(=O)O; Isovaleryl = CC(C)CC(=O)*; CO = O=C([*:1])[*:2]

For `CCCCC(NC(=O)C=[N+]=[N-])C(=O)OC` (racemic) [DAN, diazoacetyl-DL-norleucinemethlyester], the remaining activity at 12000 µM (12 mM inhibitor in preincubation (pH 6.0, 37° C., 5 min), assay pH 3.2, 80° C., 15 min, percent of control, read-out: Enzyme Activity (%)) is 100%. Besides, the “effect of inhibitor on thermopsin activity (in words)” value (from here on “effect of inhibitor”) under setting [1] is listed as “not inactivated; also recorded: no effect”.

As to `CC(C)[C@H](NC(=O)[C@H](CCCNC(=N)N)NC(=O)N[C@@H](Cc1ccccc1)C(=O)O)C(=O)N[C@H](C=O)CCCNC(=N)N` [Antipain, antipain] ({Phe-CO}-Arg-Val-Arg-aldehyde), under setting [2], the remaining activity at 20 µM worked out at 25%. Besides, the “effect of inhibitor” value under setting [1] is reported as “inhibited; also recorded: significant inhibition”.

As for `O=C(O)CN(CCN(CC(=O)O)CC(=O)O)CC(=O)O` [EDTA], the “effect of inhibitor” value is recorded as “little effect”. Also, the remaining activity at 1000 µM (read-out: Enzyme Activity (%)) worked out at 100%.

As for `CC(C)C[C@H](NC(=O)N[C@H](C(=O)N[C@@H](CCC(N)=O)C(=O)N[C@@H](C)C=O)[C@@H]1CCNC(=N)N1)C(=O)O` [Elastatinal, elastatinal], under setting [2], the remaining activity at 20 µM is 70%.

In the case of `O=C(O)CI` [Iodoacetic Acid, iodoacetic acid], the “effect of inhibitor” value is “little effect”. Moreover, the remaining activity at 100 µM (read-out: Enzyme Activity (%)) amounted to 74%.

`CC(=O)N[C@@H](CC(C)C)C(=O)N[C@@H](CC(C)C)C(=O)N[C@H](C=O)CCCNC(=N)N` [Leupeptin, leupeptin]: for the setting “0.004 mM inhibitor in preincubation (pH 6.0, 37° C., 5 min), assay pH 3.2, 80° C., 15 min, percent of control, read-out: Enzyme Activity (%)”, the remaining activity at 4 µM turned out to be 93%.

As to `CCN1C(=O)C=CC1=O` [N-ethylmaleimide], the remaining activity at 100 µM (0.1 mM inhibitor in preincubation (pH 6.0, 37° C., 5 min), assay pH 3.2, 80° C., 15 min, percent of control, read-out: Enzyme Activity (%)) came out at 95%. For the same compound, the “effect of inhibitor” value under setting [1] is “little effect”.

As for `O=S(=O)(F)Cc1ccccc1` [PMSF, phenylmethylsulfonyl fluoride], the “Enzyme Activity (%)” value (2 mM inhibitor in preincubation (pH 6.0, 37° C., 5 min), assay pH 3.2, 80° C., 15 min, percent of control) turned out to be 28%. For the same compound, the “effect of inhibitor” value under setting [1] was “significantly inactivate; also recorded: significant inhibition”.

As for `CC(C)CC(=O)N[C@H](C(=O)N[C@H](C(=O)N[C@@H](CC(C)C)[C@@H](O)CC(=O)N[C@@H](C)C(=O)N[C@@H](CC(C)C)[C@@H](O)CC(=O)O)C(C)C)C(C)C` [Pepstatin, pepstatin] (Isovaleryl-VV[Sta]A[Sta]-OH), the remaining activity at 0.5 µM (0.5 μM inhibitor in preincubation (pH 6.0, 37° C., 5 min), assay pH 3.2, 80° C., 15 min, percent of control, read-out: Enzyme Activity (%)) is 50%. Also, the remaining activity at 5 µM (5 μM inhibitor in preincubation (pH 6.0, 37° C., 5 min), assay pH 3.2, 80° C., 15 min, percent of control, read-out: Enzyme Activity (%)) came out at 16%. Also, the “effect of inhibitor” value under setting [1] is “strongly inhibited”. Further, the IC50 (thermopsin proteolytic activity, hemoglobin substrate, read-out: inhibitor concentration giving 50% inhibition of enzyme activity) was ~500 nM and 500 nM.

For `Cc1ccc(S(=O)(=O)N[C@@H](CCCCN)C(=O)CCl)cc1` [TLCK, N-p-Tosyl-1-lysine chloromethyl ketone], the remaining activity at 10 µM under setting [2] was 78%. For the same compound, the “effect of inhibitor” value under setting [1] was “much less effective”.

For the compound `Cc1ccc(S(=O)(=O)N[C@@H](Cc2ccccc2)C(=O)CCl)cc1` [TPCK, N-Tosyl-L-phenylalanine chloromethyl ketone], the remaining activity at 10 µM under setting [2] was 14%. Moreover, the “effect of inhibitor” value under setting [1] was “significantly inactivate; also recorded: significant inhibition”.
